Experimental data published in PMC5218480 (PLoS ONE, 2017).

Test system: MV-4-11 cells
Test: Gene expression microarray analysis (Affymetrix PrimeView) and GSEA
Format: cell-based, human
Set-up: RFU PODN (11730768_x_at) / Fold change /veh PODN (11730768_x_at) / RFU LINC00158 (11744669_a_at) / Fold change /veh LINC00158 (11744669_a_at) / RFU DUSP10 (11751237_a_at) / Fold change /veh DUSP10 (11751237_a_at) / RFU ID3 (11757404_x_at) / Fold change /veh ID3 (11757404_x_at) / RFU PLEKHG5 (11737974_s_at) / Fold change /veh PLEKHG5 (11737974_s_at) / RFU LRRC4B (11730491_at) / Fold change /veh LRRC4B (11730491_at) / RFU GIMAP4 (11747438_a_at) / Fold change /veh GIMAP4 (11747438_a_at) / RFU KRT8 (11758183_x_at) / Fold change /veh KRT8 (11758183_x_at) / RFU CNN1 (11734310_a_at) / Fold change /veh CNN1 (11734310_a_at) / RFU VPS37D (11726825_at) / Fold change /veh VPS37D (11726825_at) / RFU C10orf10 (11716522_x_at) / Fold change /veh C10orf10 (11716522_x_at) / RFU KIR2DL2 /// KIR2DL4 /// KIR2DL5A /// KIR2DL5B /// KIR2DS1 /// KIR2DS2 /// KIR2DS3 /// KIR2DS4 /// KIR3DL3 /// KIR3DL3 /// KIR3DS1 (11738374_at) / Fold change /veh KIR2DL2 /// KIR2DL4 /// KIR2DL5A /// KIR2DL5B /// KIR2DS1 /// KIR2DS2 /// KIR2DS3 /// KIR2DS4 /// KIR3DL3 /// KIR3DL3 /// KIR3DS1 (11738374_at) / RFU C1QL1 (11718748_at) / Fold change /veh C1QL1 (11718748_at) / RFU TMPRSS4 (11747572_a_at) / Fold change /veh TMPRSS4 (11747572_a_at) / RFU HAMP (11756126_x_at) / Fold change /veh HAMP (11756126_x_at) / RFU RNFT2 (11725882_a_at) / Fold change /veh RNFT2 (11725882_a_at) / RFU NR4A2 (11747474_a_at) / Fold change /veh NR4A2 (11747474_a_at) / RFU ABCC12 (11746883_a_at) / Fold change /veh ABCC12 (11746883_a_at) / RFU TMEM136 (11760407_x_at) / Fold change /veh TMEM136 (11760407_x_at) / RFU CLDN22 /// WWC2 (11732394_at) / Fold change /veh CLDN22 /// WWC2 (11732394_at) / RFU HLA-DPB1 (11760878_x_at) / Fold change /veh HLA-DPB1 (11760878_x_at) / RFU SPINT1 (11716480_a_at) / Fold change /veh SPINT1 (11716480_a_at) / RFU GAP43 (11754022_s_at) / Fold change /veh GAP43 (11754022_s_at) / RFU A4GNT (11735810_at) / Fold change /veh A4GNT (11735810_at) / RFU PRB3 (11715151_x_at) / Fold change /veh PRB3 (11715151_x_at) / RFU TUBB4B (11761932_at) / Fold change /veh TUBB4B (11761932_at) / RFU CAPN14 (11732068_a_at) / Fold change /veh CAPN14 (11732068_a_at) / RFU TMCC2 (11721928_a_at) / Fold change /veh TMCC2 (11721928_a_at) / RFU IRGQ (11745062_a_at) / Fold change /veh IRGQ (11745062_a_at) / RFU FAM174B (11720279_a_at) / Fold change /veh FAM174B (11720279_a_at) / RFU TMPRSS4 (11748680_a_at) / Fold change /veh TMPRSS4 (11748680_a_at) / RFU FAM212B (11763350_a_at) / Fold change /veh FAM212B (11763350_a_at) / RFU PLEKHG5 (11743358_a_at) / Fold change /veh PLEKHG5 (11743358_a_at) / RFU ZSCAN30 (11745921_a_at) / Fold change /veh ZSCAN30 (11745921_a_at) / RFU CMKLR1 (11741424_a_at) / Fold change /veh CMKLR1 (11741424_a_at) / RFU LOC101060620 /// MAPK8IP1 (11723275_at) / Fold change /veh LOC101060620 /// MAPK8IP1 (11723275_at) / RFU SPTSSB (11747773_x_at) / Fold change /veh SPTSSB (11747773_x_at) / RFU PRSS12 (11739890_at) / Fold change /veh PRSS12 (11739890_at) / RFU BIN1 (11741810_x_at) / Fold change /veh BIN1 (11741810_x_at) / RFU WNT11 (11732464_a_at) / Fold change /veh WNT11 (11732464_a_at) / RFU C10orf10 (11716521_a_at) / Fold change /veh C10orf10 (11716521_a_at) / RFU C5orf56 (11738089_at) / Fold change /veh C5orf56 (11738089_at) / RFU CYB561 (11721691_x_at) / Fold change /veh CYB561 (11721691_x_at) / RFU ANKRD19P (11752326_a_at) / Fold change /veh ANKRD19P (11752326_a_at) / RFU OR2T12 /// OR2T33 /// OR2T8 (11738714_s_at) / Fold change /veh OR2T12 /// OR2T33 /// OR2T8 (11738714_s_at) / RFU VCAN (11748164_a_at) / Fold change /veh VCAN (11748164_a_at) / RFU JSRP1 (11732532_at) / Fold change /veh JSRP1 (11732532_at) / RFU KRTAP10-11 (11738290_x_at) / Fold change /veh KRTAP10-11 (11738290_x_at) / RFU MYO3A (11730013_a_at) / Fold change /veh MYO3A (11730013_a_at) / RFU EBF3 (11725865_a_at) / Fold change /veh EBF3 (11725865_a_at) / RFU CAMK2N1 (11719241_x_at) / Fold change /veh CAMK2N1 (11719241_x_at) / RFU C5orf56 (11738088_a_at) / Fold change /veh C5orf56 (11738088_a_at) / RFU OLFML3 (11715873_a_at) / Fold change /veh OLFML3 (11715873_a_at) / RFU LOC100653217 /// NTM (11731650_a_at) / Fold change /veh LOC100653217 /// NTM (11731650_a_at) / RFU MAPK11 (11762145_a_at) / Fold change /veh MAPK11 (11762145_a_at) / RFU FIZ1 (11724087_x_at) / Fold change /veh FIZ1 (11724087_x_at) / RFU OASL (11726364_x_at) / Fold change /veh OASL (11726364_x_at) / RFU SOX15 (11748057_x_at) / Fold change /veh SOX15 (11748057_x_at) / RFU CD79A (11719716_a_at) / Fold change /veh CD79A (11719716_a_at) / RFU HIST1H1D (11736915_at) / Fold change /veh HIST1H1D (11736915_at) / RFU CASKIN2 (11723855_a_at) / Fold change /veh CASKIN2 (11723855_a_at) / RFU LOC730098 (11760151_x_at) / Fold change /veh LOC730098 (11760151_x_at) / RFU OR4N2 (11742367_at) / Fold change /veh OR4N2 (11742367_at) / RFU PRRT2 (11749266_a_at) / Fold change /veh PRRT2 (11749266_a_at) / RFU SNX32 (11753110_a_at) / Fold change /veh SNX32 (11753110_a_at) / RFU CDHR5 (11726645_a_at) / Fold change /veh CDHR5 (11726645_a_at) / RFU RCAN1 (11760418_a_at) / Fold change /veh RCAN1 (11760418_a_at) / RFU FAM167A (11723789_a_at) / Fold change /veh FAM167A (11723789_a_at) / RFU FAM26E (11764081_at) / Fold change /veh FAM26E (11764081_at) / RFU ISYNA1 (11749810_s_at) / Fold change /veh ISYNA1 (11749810_s_at) / RFU ACY1 (11761880_at) / Fold change /veh ACY1 (11761880_at) / RFU 11764098_at / Fold change /veh 11764098_at / RFU SAMD14 (11745864_x_at) / Fold change /veh SAMD14 (11745864_x_at) / RFU NPB (11741838_a_at) / Fold change /veh NPB (11741838_a_at) / RFU TMPRSS6 (11731388_a_at) / Fold change /veh TMPRSS6 (11731388_a_at) / RFU KRTAP10-2 (11738614_at) / Fold change /veh KRTAP10-2 (11738614_at) / RFU ARHGAP8 /// PRR5-ARHGAP8 (11727945_x_at) / Fold change /veh ARHGAP8 /// PRR5-ARHGAP8 (11727945_x_at) / RFU KRTAP5-7 /// NADSYN1 (11734609_at) / Fold change /veh KRTAP5-7 /// NADSYN1 (11734609_at) / RFU RASL12 (11751679_a_at) / Fold change /veh RASL12 (11751679_a_at) / RFU CDKN2B (11736163_a_at) / Fold change /veh CDKN2B (11736163_a_at) / RFU PRF1 (11729649_at) / Fold change /veh PRF1 (11729649_at) / RFU, ZNF638 /// ZNF638-IT1 / Fold change vs veh, ZNF638 /// ZNF638-IT1 / RFU, PANK3 / Fold change vs veh, PANK3 / RFU, SH3YL1 / Fold change vs veh, SH3YL1 / RFU, ZEB2 / Fold change vs veh, ZEB2 / RFU, NRIP1 / Fold change vs veh, NRIP1 / RFU, PTTG1IP / Fold change vs veh, PTTG1IP / RFU, CAPN2 / Fold change vs veh, CAPN2 / RFU, MED14 / Fold change vs veh, MED14 / RFU, SNORA58 / Fold change vs veh, SNORA58 / RFU, C1orf63 / Fold change vs veh, C1orf63 / RFU, LRRFIP1 / Fold change vs veh, LRRFIP1 / RFU, NDUFAF7 / Fold change vs veh, NDUFAF7 / RFU, SLC12A2 / Fold change vs veh, SLC12A2 / RFU, IBTK / Fold change vs veh, IBTK / RFU, ESF1 / Fold change vs veh, ESF1 / Fold change vs veh, TMEM50B / RFU, TAOK1 / Fold change vs veh, TAOK1 / RFU, ACBD3 / Fold change vs veh, ACBD3 / RFU, TMA16 / Fold change vs veh, TMA16 / RFU, RWDD3 / Fold change vs veh, RWDD3 / RFU, BCAT1 / Fold change vs veh, BCAT1 / RFU, EDEM3 / Fold change vs veh, EDEM3 / RFU, TMEM33 / Fold change vs veh, TMEM33 / RFU, WDR75 / Fold change vs veh, WDR75 / RFU, AHCTF1 / Fold change vs veh, AHCTF1 / RFU, TFRC / Fold change vs veh, TFRC / RFU, ZDHHC17 / Fold change vs veh, ZDHHC17 / RFU, NOM1 / Fold change vs veh, NOM1 / RFU, ARL8B / Fold change vs veh, ARL8B / RFU, ZBTB11 / Fold change vs veh, ZBTB11 / RFU, TAMM41 / Fold change vs veh, TAMM41 / RFU, KIAA1704 /// LOC100996395 / Fold change vs veh, KIAA1704 /// LOC100996395 / RFU, ING1 / Fold change vs veh, ING1 / RFU, TRMT61B / Fold change vs veh, TRMT61B / RFU, FUBP3 / Fold change vs veh, FUBP3 / RFU, TP53 / Fold change vs veh, TP53 / RFU, TNKS2 / Fold change vs veh, TNKS2 / RFU, ZFP14 / Fold change vs veh, ZFP14 / RFU, ACTR2 / Fold change vs veh, ACTR2 / RFU, PPP3R1 / Fold change vs veh, PPP3R1 / RFU, PIK3R1 / Fold change vs veh, PIK3R1 / RFU, HNRNPA1 / Fold change vs veh, HNRNPA1 / RFU, RNF170 / Fold change vs veh, RNF170 / RFU, ZNF28 / Fold change vs veh, ZNF28 / RFU, RNGTT / Fold change vs veh, RNGTT / RFU, OGT / Fold change vs veh, OGT / RFU, BRD1 / Fold change vs veh, BRD1 / RFU, MARS / Fold change vs veh, MARS / RFU, ZNF655 / Fold change vs veh, ZNF655 / RFU, FAHD1 / Fold change vs veh, FAHD1 / RFU, BDP1 / Fold change vs veh, BDP1 / RFU, LRRCC1 / Fold change vs veh, LRRCC1 / RFU, ARID1A / Fold change vs veh, ARID1A / RFU, ZNF146 / Fold change vs veh, ZNF146 / RFU, ZNF330 / Fold change vs veh, ZNF330 / RFU, GPN3 / Fold change vs veh, GPN3 / RFU, C9orf123 / Fold change vs veh, C9orf123 / RFU, N4BP2L2 / Fold change vs veh, N4BP2L2 / RFU, ARFIP1 / Fold change vs veh, ARFIP1 / RFU, FAM179B / Fold change vs veh, FAM179B / RFU, BCL10 / Fold change vs veh, BCL10 / RFU, UHRF1BP1L / Fold change vs veh, UHRF1BP1L / RFU, BET1 / Fold change vs veh, BET1 / RFU, CNOT2 / Fold change vs veh, CNOT2 / RFU, ZNF268 / Fold change vs veh, ZNF268 / Fold change vs veh, ZNF507 / RFU, DGCR2 / Fold change vs veh, DGCR2 / RFU, WDSUB1 / Fold change vs veh, WDSUB1 / Fold change vs veh, HSP90B1 /// MIR3652 / RFU, ADSS / Fold change vs veh, ADSS / RFU, GK / Fold change vs veh, GK / RFU, ZNF148 / Fold change vs veh, ZNF148 / RFU, TAF9 / Fold change vs veh, TAF9 / RFU, SLC1A5 / Fold change vs veh, SLC1A5 / RFU, SLMO2 / Fold change vs veh, SLMO2 / RFU, ABCC4 / Fold change vs veh, ABCC4 / RFU, LOC101060439 /// RAP1B / Fold change vs veh, LOC101060439 /// RAP1B / RFU, RFX7 / Fold change vs veh, RFX7 / RFU, GTPBP10 / Fold change vs veh, GTPBP10 / RFU, CNEP1R1 / Fold change vs veh, CNEP1R1 / RFU, BIVM-ERCC5 /// ERCC5 / Fold change vs veh, BIVM-ERCC5 /// ERCC5 / RFU, ILF3 / Fold change vs veh, ILF3 / RFU 11762660_at / Fold change /veh 11762660_at / RFU VCAN (11757783_s_at) / Fold change /veh VCAN (11757783_s_at) / RFU DDX43 (11728927_at) / Fold change /veh DDX43 (11728927_at) / RFU KRT8 (11758188_x_at) / Fold change /veh KRT8 (11758188_x_at) / RFU NKD1 (11759106_at) / Fold change /veh NKD1 (11759106_at) / RFU SRD5A1 (11742802_a_at) / Fold change /veh SRD5A1 (11742802_a_at) / RFU TPSAB1 /// TPSB2 (11721975_s_at) / Fold change /veh TPSAB1 /// TPSB2 (11721975_s_at) / RFU GSTM3 (11746129_a_at) / Fold change /veh GSTM3 (11746129_a_at) / RFU IL23R (11737362_x_at) / Fold change /veh IL23R (11737362_x_at) / RFU TMEM51 (11727254_a_at) / Fold change /veh TMEM51 (11727254_a_at) / RFU PIWIL2 (11732686_x_at) / Fold change /veh PIWIL2 (11732686_x_at) / RFU ORM1 (11744905_x_at) / Fold change /veh ORM1 (11744905_x_at) / RFU CCDC152 (11743942_at) / Fold change /veh CCDC152 (11743942_at) / RFU ECM1 (11717891_a_at) / Fold change /veh ECM1 (11717891_a_at) / RFU IL23R (11748794_a_at) / Fold change /veh IL23R (11748794_a_at) / RFU TNFAIP8L3 (11732012_x_at) / Fold change /veh TNFAIP8L3 (11732012_x_at) / RFU MBOAT4 (11741988_at) / Fold change /veh MBOAT4 (11741988_at) / RFU 11764193_at / Fold change /veh 11764193_at / RFU TMEM53 (11763286_at) / Fold change /veh TMEM53 (11763286_at) / RFU MAGEB2 (11727129_at) / Fold change /veh MAGEB2 (11727129_at) / RFU TMEM200A (11744735_a_at) / Fold change /veh TMEM200A (11744735_a_at) / RFU CCDC152 (11751479_a_at) / Fold change /veh CCDC152 (11751479_a_at) / RFU FAM211A (11726209_a_at) / Fold change /veh FAM211A (11726209_a_at) / RFU RGS16 (11746705_a_at) / Fold change /veh RGS16 (11746705_a_at) / RFU VCAN (11755009_s_at) / Fold change /veh VCAN (11755009_s_at) / RFU RHOB (11743442_s_at) / Fold change /veh RHOB (11743442_s_at) / RFU RGS16 (11720943_a_at) / Fold change /veh RGS16 (11720943_a_at) / RFU RGS16 (11720944_at) / Fold change /veh RGS16 (11720944_at) / RFU, VPS4B / Fold change vs veh, VPS4B / RFU, CREB1 / Fold change vs veh, CREB1 / RFU, DNAJC13 / Fold change vs veh, DNAJC13 / RFU, GNAQ / Fold change vs veh, GNAQ / RFU, CDK5R1 / Fold change vs veh, CDK5R1 / RFU, ZRANB3 / Fold change vs veh, ZRANB3 / RFU, CUL4A / Fold change vs veh, CUL4A / RFU, CCNY / Fold change vs veh, CCNY / RFU, UFL1 / Fold change vs veh, UFL1 / RFU, COG3 / Fold change vs veh, COG3 / RFU, DIAPH2 / Fold change vs veh, DIAPH2 / RFU, SKA2 / Fold change vs veh, SKA2 / RFU, AFF3 / Fold change vs veh, AFF3 / RFU, LMF1 / Fold change vs veh, LMF1 / RFU, IPO11 / Fold change vs veh, IPO11 / RFU, DFFB / Fold change vs veh, DFFB / RFU, FOXP1 / Fold change vs veh, FOXP1 / RFU, CARD8 / Fold change vs veh, CARD8 / RFU, STRN3 / Fold change vs veh, STRN3 / RFU, ADK / Fold change vs veh, ADK / RFU, RASSF2 / Fold change vs veh, RASSF2 / RFU, WIPF1 / Fold change vs veh, WIPF1 / RFU, LARP1B / Fold change vs veh, LARP1B / RFU, RASA1 / Fold change vs veh, RASA1 / RFU, RB1 / Fold change vs veh, RB1 / RFU, PPFIA1 / Fold change vs veh, PPFIA1 / RFU, MAT2A / Fold change vs veh, MAT2A / RFU, CCT5 / Fold change vs veh, CCT5 / RFU, WDR92 / Fold change vs veh, WDR92 / RFU, CUX1 / Fold change vs veh, CUX1 / RFU, TTC7A / Fold change vs veh, TTC7A / RFU, TMEM135 / Fold change vs veh, TMEM135 / RFU, DEPTOR / Fold change vs veh, DEPTOR / RFU, CPM / Fold change vs veh, CPM / RFU, DNAJB6 / Fold change vs veh, DNAJB6 / RFU, CACNA2D3 / Fold change vs veh, CACNA2D3 / RFU, DTX4 / Fold change vs veh, DTX4 / RFU, TFCP2 / Fold change vs veh, TFCP2 / RFU, GMCL1 /// GMCL1P1 / Fold change vs veh, GMCL1 /// GMCL1P1 / RFU, AEBP2 / Fold change vs veh, AEBP2 / RFU, SNHG1 /// SNORD22 /// SNORD25 /// SNORD26 /// SNORD27 /// SNORD28 /// SNORD29 /// SNORD31 / Fold change vs veh, SNHG1 /// SNORD22 /// SNORD25 /// SNORD26 /// SNORD27 /// SNORD28 /// SNORD29 /// SNORD31 / Fold change (Aza/veh), C12orf56 (ProbeSet 11735607_a_at) / Fold change (ACY-1035/veh), C12orf56 (ProbeSet 11735607_a_at) / Fold change (Aza/veh), FGFR1OP (ProbeSet 11751329_s_at) / Fold change (ACY-1035/veh), FGFR1OP (ProbeSet 11751329_s_at) / Fold change (Aza/veh), VPS36 (ProbeSet 11739960_a_at) / Fold change (ACY-1035/veh), VPS36 (ProbeSet 11739960_a_at) / RFU SYPL1 (11715823_x_at) / Fold change /veh SYPL1 (11715823_x_at) / RFU IGFBP7 (11715501_s_at) / Fold change /veh IGFBP7 (11715501_s_at) / RFU REEP3 (11722064_at) / Fold change /veh REEP3 (11722064_at) / RFU IGLL1 (11728026_x_at) / Fold change /veh IGLL1 (11728026_x_at): dose or concentration left out as unconfirmed
Settings: ProbeSet 11759095_at; LIST D

Nc1ccc(-c2cccs2)cc1NC(=O)c1ccc2c(c1)cc(C1CC1)n2CCN1CCOCC1 [ACY-1035]
Fold change vs veh, GNAQ: 0.95
